Measurements taken from patent publication US20040057976A1, “Insect bait” (priority 2002, published 2004).
“And” between values parts separate entries of the source, which are not always exact repeats. Equal values may be shown once. Read-outs that look alike come from different tables or passages of the source.

Columns and labels:
white-footed ants = assay: Two-choice, random-order preference tests on exterior walls; type: in vivo, Technomyrmex albipes
Experimental: Two commercial ready-to-use (RTU) ant baits and several sugar solutions were tested with and without active ingredients, including 10,000 ppm DOT (Uncle Albert's Super Smart Ant Bait®, A Safe Pest Eliminators, Inc., Miami, Fla.) and 10,000 ppm orthoboric acid (Drax Liquidator®, Waterbury Companies, Inc., Waterbury, Conn.). Sugar water solutions tested included: 100,000 ppm, 150,000 ppm, 200,000 ppm, 250,000 ppm, 350,000 ppm, 400,000 ppm, and 500,000 ppm sucrose (Publix Supermarkets, […] and 500,000 ppm fructose (Fisher Scientific, Pittsburgh, Pa.), 250,000 ppm maltose (Fisher Scientific). Four insect bait formulations of the invention (ND 1, ND2, ND3, ND4, see Table II) were also tested against sugars and commercial baits. […] Borax, Los Angeles, Calif.). Glass shell vials (6-ml capacity) with […] plastic caps (Fisher Scientific) were used for bait containers. Vials were modified for use as bait containers by drilling holes (6 mm) in the caps, inserting cotton dental wicks, which minimize bait desiccation and entrapment by ants, adding 4.5-ml solution, and using […]® (Pacer Technology, Rancho Cucamonga, Calif.) adhesive putty to hold the vials on the walls. Each test consisted of 5 bait vial pairs placed in 2 columns (FIG. 1). […] Nine counts of ants on each wick were taken approximately every 30 minutes over 4.5 hours. When the numbers of ants could not be counted visually, digital photographs were taken, and counts were taken from a computer display. Data were analyzed using t-Test and Mann-Whitney Rank Sum Tests at P=0.05.

T. Albipes adults [1] = conditions: first trial, non-forced bioassay, means of 5 replicates
Text: White-footed ants were collected from a stand of Phoenix roebelenii palms at the University of Florida Fort Lauderdale Research and Education Center (Broward Co., FL). Adult ants and brood were collected from nesting sites in palm thatch between 9 a.m. and 3 p.m., when most of the foragers are in the nests. The thatch was placed in a plastic 100-liter garbage pail through a 28-cm hole cut into the center of its lid. The upper portions of the interior sides of the pail were coated with a petroleum jelly (Vaseline® London, UK) to retard the ants' escape.
Infested thatch material was taken from the garbage pail, placed in the container, covered with 1×15-cm strips of wood and a separator sheet of 3-mm polycarbonate with 2-mm holes. Dripping water from a 2-1 tank suspended over the container forced the ants to leave the thatch and enter nesting tubes (10×75 mm clear polystyrene test tubes) (Fisher Scientific, Pittsburgh, Pa.), filled at the bottom with a small cotton ball soaked with sugar water, and completely covered with aluminum foil.
Nalgene™ reusable plastic utility boxes with lids ([…]) (Fisher Scientific, Pittsburgh, Pa.) were used to hold white-footed ant colonies for laboratory tests (FIG. 4). Nesting tubes with about 200 ants and dozens of brood were placed into each box, held in place with a small amount of Handi-Tak®. Ants were provisioned with water by placing a small cotton ball moistened with approximately 2-ml deionized water in a 41×41×8 mm plastic weighing boat.
Five holes (0.86 mm ID) were drilled into the caps. Vials were filled with 4.5 ml bait solution, inverted, and attached to the sides of the boxes with Handi-Tak® (FIG. 3). Sugar water was fed ad libitum to the ants at all times and supplemented twice weekly by live termites or canned chicken for protein. A felt pad was placed under each vial to catch errant drops and prevent ants from being entrapped in their sticky residue. Ants were allowed to acclimatize in boxes for several weeks. Each day dead ants were removed and replaced with live ants. When ant populations appeared stable, treatments were applied. No ants were added during the experiment.
Fourteen treatments (5 replicates each, assigned randomly) were applied to the ants in boxes. […] The suspension of XR-007 was placed into a plastic weighing boat (0.5 g), and replaced twice a week or when it desiccated. One corner was cut away to allow for easier access by the ants.
Both vials had felt pads under them. Boxes with gels had the gels in weighing boats. The boats were on the left side of the box, and the untreated sugar water vials were on the right side. […] This was accomplished by adding 0.17-ml to panels and distributing the solution evenly with a fine paintbrush previously saturated in solution. One-half g XR-007 and indoxacarb in honey were placed into the bulb of 9.3-ml large-tip opening transfer pipettes (having had 8-cm cut back from the tip, Samco®b, San Fernando, Calif.).
Dead ants were removed and counted daily for the first week, then twice weekly thereafter. At the end of the experiment, all ants still living were killed with ethanol and counted to determine the total number of ants in each box. […] Mean percent mortalities were analyzed by ANOVA (analysis of variance) and general linear model (SAS Institute, 1989 SAS/STAT user's guide, version 6, 4th ed. SAS Institute, Cary, N.C.) and means separated using Student-Newman-Keals test at P<0.05.
Mortality for the first trial was recorded for 51 days.

T. Albipes adults [2] = assay: Laboratory efficacy test, second trial (non-forced bioassay, 15 treatments); type: in vivo, Technomyrmex albipes; conditions: means of 5 replicates
Experimental: When ant populations appeared stable, treatments were applied. No ants were added during the experiment.
Surface treatments included 1,200 ppm fipronil (Termidor®& SC), 500 ppm indoxacarb (DuPont, Wilmington, Del.), 500 ppm deltamethrin (DeltaDust®, Aventis Environmental Science), and 600 ppm lambda cyhalothrin (Demand®V CS, Syngenta Crop Protection).
Both vials had felt pads under them. Boxes with gels had the gels in weighing boats.
Mortality for the second trial was recorded for 47 days.

[3] = test 18: 25% Sucrose vs. 25% Maltose, P=0.852
[4] = test 19: 25% Sucrose vs. 25% Glucose, P=0.463
[5] = test 17: 50% Fructose vs. 50% Glucose, P=0.817

Compound: OC[C@H]1O[C@@](CO)(O[C@H]2O[C@H](CO)[C@@H](O)[C@H](O)[C@H]2O)[C@@H](O)[C@@H]1O [sucrose]
- preference in binary choice test (counts of ants on wicks) (white-footed ants; test 1: 10% Sucrose vs. water, P<0.001): highly preferred
- preference in binary choice test (counts of ants on wicks) (white-footed ants; test 3: 25% Sucrose vs. 10% Sucrose, P<0.05): preferred
- preference in binary choice test (counts of ants on wicks) (white-footed ants; test 4: 25% Sucrose vs. 25% Fructose, P<0.001): preferred
- preference in binary choice test (counts of ants on wicks) (white-footed ants; test 5: 25% Sucrose vs. 15% Sucrose, P<0.05): preferred
- preference in binary choice test (counts of ants on wicks) (white-footed ants; test 6: 25% Sucrose vs. 20% Sucrose, P<0.05): preferred
- preference in binary choice test (counts of ants on wicks) (white-footed ants; test 7: 40% Sucrose vs. ND1, P=0.002): preferred
- preference in binary choice test (counts of ants on wicks) (white-footed ants; test 13: 25% Sucrose vs. Uncle Albert's Super Smart Ant Bait (no active ingredient), P=0.458): no significant preferences
- preference in binary choice test (counts of ants on wicks) (white-footed ants; test 15: 25% Sucrose vs. 50% Sucrose, P=0.112): no significant preference
- preference in binary choice test (counts of ants on wicks) (white-footed ants; [3]): no significant preferences
- preference in binary choice test (counts of ants on wicks) (white-footed ants; [4]): no significant preferences

Compound: N#Cc1nn(-c2c(Cl)cc(C(F)(F)F)cc2Cl)c(N)c1[S+]([O-])C(F)(F)F (stereo not drawn) [Fipronil, fipronil]
- Mean percent Mortality (+/SD) of T. Albipes adults (T. Albipes adults [1]; 1 day exposure): 0.98 ± 0.70b %
- Mean percent Mortality (+/SD) of T. Albipes adults (T. Albipes adults [1]; 3 days exposure): 3.46 ± 1.38cd %
- Mean percent Mortality (+/SD) of T. Albipes adults (T. Albipes adults [1]; 7 days exposure): 6.76 ± 2.25e %
- Mean percent Mortality (+/SD) of T. Albipes adults (T. Albipes adults [1]; 30 days exposure): 27.88 ± 5.89bc %
- Mean percent Mortality (+/SD) of T. Albipes adults (T. Albipes adults [1]; 51 days exposure): 53.76 ± 10.84b %

Compound: COC(=O)N(C(=O)N1CO[C@@]2(C(=O)OC)Cc3cc(Cl)ccc3C2=N1)c1ccc(OC(F)(F)F)cc1 [DPX surface, indoxacarb]
- Mean % mortality (+/SD) of T. albipes adults (T. Albipes adults [2]; 1 day exposure): 2.19 ± 2.42bcd %
- Mean % mortality (+/SD) of T. albipes adults (T. Albipes adults [2]; 2 days exposure): 2.56 ± 2.51c %
- Mean % mortality (+/SD) of T. albipes adults (T. Albipes adults [2]; 8 days exposure): 5.61 ± 4.96c %
- Mean % mortality (+/SD) of T. albipes adults (T. Albipes adults [2]; 29 days exposure): 16.59 ± 12.72de %
- Mean % mortality (+/SD) of T. albipes adults (T. Albipes adults [2]; 47 days exposure): 27.87 ± 14.59e %

Compound: O=[N+]([O-])NC1=NCCN1Cc1ccc(Cl)nc1 [Imidacloprid]
- Mean percent Mortality (+/SD) of T. Albipes adults (T. Albipes adults [1]; 1 day exposure): 5% and 4.92 ± 4.02ab %
- Mean percent Mortality (+/SD) of T. Albipes adults (T. Albipes adults [1]; 7 days exposure): 29.84 ± 10.63bc %
- Mean percent Mortality (+/SD) of T. Albipes adults (T. Albipes adults [1]; 7 days exposure, listed as Irnidacloprid): 30%
- Mean percent Mortality (+/SD) of T. Albipes adults (T. Albipes adults [1]; 30 days exposure): 79% and 78.55 ± 4.83a %
- Mean percent Mortality (+/SD) of T. Albipes adults (T. Albipes adults [1]; 51 days exposure): 91% and 90.86 ± 5.43a %

Compound: O=C(CO)[C@@H](O)[C@H](O)[C@H](O)CO [fructose]
- preference in binary choice test (counts of ants on wicks) (white-footed ants; test 2: 25% Fructose vs. 25% Maltose, P=0.033): preferred
- preference in binary choice test (counts of ants on wicks) (white-footed ants; test 14: 25% Fructose vs. Drax Liquidator (no active ingredient), P=0.580): no significant preferences
- preference in binary choice test (counts of ants on wicks) (white-footed ants; test 16: 25% Fructose vs. Uncle Albert's Super Smart Ant Bait (no active ingredient), P 0.057): no significant preferences
- preference in binary choice test (counts of ants on wicks) (white-footed ants; [5]): no significant preferences

Compound: O=C[C@H](O)[C@@H](O)[C@H](O)[C@H](O)CO [glucose]
- preference in binary choice test (counts of ants on wicks) (white-footed ants; [5]): no significant preferences
- preference in binary choice test (counts of ants on wicks) (white-footed ants; [4]): no significant preferences

Compound: spinosad
- Mean percent Mortality (+/SD) of T. Albipes adults (T. Albipes adults [1]; 1 day exposure): 1.01 ± 0.87b %
- Mean percent Mortality (+/SD) of T. Albipes adults (T. Albipes adults [1]; 3 days exposure): 2.02 ± 0.83d %
- Mean percent Mortality (+/SD) of T. Albipes adults (T. Albipes adults [1]; 7 days exposure): 3.78 ± 1.85e %
- Mean percent Mortality (+/SD) of T. Albipes adults (T. Albipes adults [1]; 30 days exposure): 16.15 ± 3.78c %
- Mean percent Mortality (+/SD) of T. Albipes adults (T. Albipes adults [1]; 51 days exposure): 34.51 ± 2.42cd %

Compound: O.O.O.O.O=BOB1OB(OB=O)OB2OB([O-])OB([O-])OB(O1)O2.[Na+].[Na+] [DOT, disodium octaborate tetrahydrate]
- preference in binary choice test (counts of ants on wicks) (white-footed ants; tests 24-30: 25% Sucrose vs. 25% Sucrose + 1% to 7% DOT in 1% increments, P=0.218 to 0.916): no observed preferences

Compound: CN1COCN(Cc2cnc(Cl)s2)/C1=N\[N+](=O)[O-] [Thiamethoxam 10 ppm, Thiamethoxam]
- Mean percent Mortality (+/SD) of T. Albipes adults (T. Albipes adults [1]; 1 day exposure): 4% and 4.44 ± 2.26ab %
- Mean percent Mortality (+/SD) of T. Albipes adults (T. Albipes adults [1]; 1 day exposure, listed as Thiamethoxam 1 ppm): 1.66 ± 1.17b %
- Mean percent Mortality (+/SD) of T. Albipes adults (T. Albipes adults [1]; 3 days exposure): 18.33 ± 8.49b %
- Mean percent Mortality (+/SD) of T. Albipes adults (T. Albipes adults [1]; 3 days exposure, listed as Thiamethoxam 1 ppm): 3.64 ± 2.80cd %
- Mean percent Mortality (+/SD) of T. Albipes adults (T. Albipes adults [1]; 7 days exposure): 39% and 38.81 ± 11.13b %
- Mean percent Mortality (+/SD) of T. Albipes adults (T. Albipes adults [1]; 7 days exposure, listed as Thiamethoxam 1 ppm): 6.44 ± 4.73e %
- Mean percent Mortality (+/SD) of T. Albipes adults (T. Albipes adults [1]; 30 days exposure): 65% and 64.77 ± 15.51a %
- Mean percent Mortality (+/SD) of T. Albipes adults (T. Albipes adults [1]; 30 days exposure, listed as Thiamethoxam 1 ppm): 19.73 ± 9.98c %
- Mean percent Mortality (+/SD) of T. Albipes adults (T. Albipes adults [1]; 51 days exposure): 84% and 84.40 ± 10.09a %
- Mean percent Mortality (+/SD) of T. Albipes adults (T. Albipes adults [1]; 51 days exposure, listed as Thiamethoxam 1 ppm): 44.02 ± 13.73bcd %

Compound: OC[C@H]1O[C@H](O[C@H]2[C@H](O)[C@@H](O)C(O)O[C@@H]2CO)[C@H](O)[C@@H](O)[C@@H]1O (mixture of isomers) [maltose]
- preference in binary choice test (counts of ants on wicks) (white-footed ants; [3]): no significant preferences
